Results as given in ChEMBL document CHEMBL1157539, “Thousands of chemical starting points for antimalarial lead identification” (Nature, 2010).

Tested on: Plasmodium falciparum
Experiment: GSK_TCMDC: Inhibition of Plasmodium falciparum 3D7 in whole erythrocytes, using parasite LDH activity as an index of growth.
Format: functional, organism-based
Settings: Plasmodium falciparum, 3D7

Row | Compound | XC50
1 | Cc1nc(Nc2ccc(F)cc2)nc(N2CCc3ccccc3C2C)c1CO (centres undefined) | 741 nM
2 | COc1ccc2nc3cc(Cl)ccc3c(Nc3ccc(C(=O)O)cc3)c2c1 | 301 nM
3 | Cc1cccc2nc(-c3cccc(-c4cccc(NC(=O)Nc5cccc(C#N)c5)c4)c3)[nH]c12 | 104 nM
4 | O=C(CSc1nn(-c2ccccc2)c(=S)s1)c1c[nH]c2ccccc12 | 1090 nM
5 | CCc1cc(N2CCN(c3ccccc3F)CC2)nc(SCc2ccc(C(=O)NC3CC3)o2)n1 | 892 nM
6 | Cc1cc(Nc2ncc3c(n2)N(C2CCC2)CC3)ccc1N1CCN(C)CC1 | 1190 nM
7 | COc1ccccc1CCNc1nc(C)cc(N[C@@H](Cc2ccccc2)C(=O)NCCc2ccccc2)n1 | 1110 nM
8 | Cc1ccccc1C1CCN(C2CCC(NC(=O)/C=C/c3ccc(C(F)(F)F)cc3F)CC2)CC1 (centres undefined) | 902 nM
9 | OC1CCCN(Cc2ccc(-c3cccc(-c4nc5cc(F)ccc5[nH]4)c3)cc2)C1 (centres undefined) | 868 nM
10 | Cc1cc(N[C@@H](Cc2ccccc2)C(=O)NCCc2ccccc2)nc(NCC2CCCCC2)n1 | 917 nM
11 | Cc1cc(N/N=C/c2ccccc2[N+](=O)[O-])c2ccccc2n1 | 776 nM
12 | COc1ccc(-c2nc3cc4ccccc4nc3[nH]2)c(OCC(O)CNC(C)C)c1 (centres undefined) | 694 nM
13 | Cc1ccc(Nc2nccc(Nc3ccc4c(c3)nc(Nc3cc(C(C)(C)C)on3)n4C)n2)cc1S(C)(=O)=O | 599 nM
14 | CCOc1ccccc1CNc1nccc(NCc2ccccc2OC)n1 | 1490 nM
15 | COc1ccc2nccc([C@@H](O)CN3CCC(NCc4cc5oc(=O)[nH]c5cc4F)CC3)c2c1 | 774 nM
16 | COC(=O)c1cccc(NC(=O)NC2CCN(c3ccnc(Nc4ccc(F)cc4)n3)C2)c1 (centres undefined) | 500 nM
17 | COc1ccc(CCn2c(C3CCCCC3)nc3oc4ccccc4c(=O)c3c2=O)cc1 | 952 nM
18 | COc1ccc2nccc([C@@H](O)CN3CCC(NC(=O)c4nc(Cl)c(Cl)c(N)c4Cl)CC3)c2c1 | 1300 nM
19 | Cc1ccc(NC(=O)c2cn(-c3ccccc3)nc2-c2ccc(F)cc2)cc1[N+](=O)[O-] | 1000 nM
20 | COc1ccc(-c2cccc(NC(=O)c3cccc(C#N)c3)c2)cc1CN1CCN(C)CC1 | 926 nM
21 | CCC(ON1C(N)=NC(N)=NC1(C)C)c1ccccc1 (centres undefined) | 33.5 nM
22 | Cc1noc(C)c1-c1ccc2c(Nc3ccccc3C(C)(C)C)c(C(=O)NCc3ccc(C(F)(F)F)cc3)cnc2c1 | 762 nM
23 | CC1(C)N=C(NC(=O)Nc2ccc([N+](=O)[O-])cc2)N=C(N)N1OCc1cccc2ccccc12 | 59.5 nM
24 | FC(F)(F)COc1c(CCNCCCCNCCc2ccc3ccccc3c2OCC(F)(F)F)ccc2ccccc12 | 348 nM
25 | CC(C)C[C@@H](NC(=O)OC(C)(C)C)C(=O)Nc1ccc(Cc2ccc(NC(=O)[C@@H](CC(C)C)NC(=O)OC(C)(C)C)cc2)cc1 | 207 nM

Row | Compound | XC50
26 | C=CCNc1cc(-c2ccccn2)nc(-c2ccccn2)n1 | 472 nM
27 | CN(/N=C/C=C/c1ccc(Cl)cc1)c1nc(NCCc2ccc(O)cc2)nc(N2CCNCC2)n1 | 873 nM
28 | Nc1nc(N)c2c(ccc3c2ncn3Cc2ccccc2)n1 | 93.4 nM
29 | Cc1cc(-c2ccc(NC(=O)Nc3ccc4nccc(N5CCN(C)CC5)c4c3)cc2C)cc(C)n1 | 153 nM
30 | CCc1cccc2sc(N3CCN(C(=O)c4ccc([N+](=O)[O-])o4)CC3)nc12 | 773 nM
31 | COc1cccc(C(=O)C2CC2CN(C)CCC(O)c2ccc(Cl)c(Cl)c2)c1 (centres undefined) | 756 nM
32 | COc1ccc2c(ccc3c2ncc2c(=O)n(-c4ccccc4)[nH]c23)c1 | 520 nM
33 | Cc1cc(N)c2cc(NC(=O)/C=C/c3ccccc3)ccc2n1 | 757 nM
34 | CSc1ccc(C[C@@H](C)NC[C@H](O)c2cccc(Cl)c2)cc1 | 940 nM
35 | CSc1ccc(CN2CCC(NC(=O)c3ccc(-c4ccc(N(C)C)cc4)s3)CC2)cc1 | 1500 nM
36 | Cc1cc(C(=O)Nc2ccc3c(c2)CCN3C2CCN(Cc3cccc(F)c3F)C2)no1 (centres undefined) | 583 nM
37 | O=C(Nc1ccc(C(F)(F)F)cc1)c1cccc(S(=O)(=O)NC2CCN(CC3CCCCC3)CC2)c1 | 848 nM
38 | Cc1ccc2[nH]c3c(NCCCN(C)C)ncnc3c2c1 | 650 nM
39 | CC(C)OC(=O)c1cccnc1SCC(=O)Nc1ccc(C(F)(F)F)cc1Cl | 400 nM
40 | CCOc1ccc(-c2nc(NC(=O)COc3ccc(OC)cc3)sc2C)cc1 | 541 nM
41 | Cc1ccc(Cn2nc(Cl)c(N3CCCNCC3)cc2=O)cc1NC(=O)Nc1ccc(-c2ccccc2)cc1 | 667 nM
42 | COc1cc(Cc2cnc(N)nc2N)ccc1Oc1ccc(N)cc1 | 868 nM
43 | CCC(C)(C)c1ccc(Oc2ccc(NC(=O)Nc3ccc(Cl)c(Cl)c3)cc2)cc1 | 704 nM
44 | Cc1cc(C)c(C(=O)Nc2ccc3nc(C)cc(N)c3c2)c(C)c1 | 1100 nM
45 | COc1ccc2nccc([C@@H](O)CN3CCC(NC(=O)c4[nH]c5ccccc5c4-c4ccccc4)CC3)c2c1 | 904 nM
46 | CC(C)C(C)(C#N)NC(=O)CSc1nc2ccc([N+](=O)[O-])cc2s1 (centres undefined) | 1030 nM
47 | N=C(N)c1ccc(C(=O)Nc2cccc(C(=N)N)c2)cc1 | 1040 nM
48 | CC(=Nc1ccc(Cl)c(Cl)c1)N(C)C | 540 nM
49 | NCc1cccc(-c2ccccc2CNC2CCN(Cc3ccccc3)CC2)c1 | 770 nM
